Test results reported in PubChem BioAssay AID1919006 (Molecular Pharmacology Branch, DTP, NCI, 2023).
Values joined by “and” are separate entries in the source; they are usually repeats but may differ in a detail not shown here. Equal entries are not always repeated. Values belong to the molecule of their own block, whether it stands above or below them.

Test system: 885512-296-R-J2-PDC complex spheroid growth, % test/control
Experiment: Anticancer human tumor 885512-296-R-J2-PDC patient-derived breast carcinoma cell line growth inhibition [AhR]
Conditions: for viability, T/C: stronger effect = lower value
Method in brief: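 Agents were dosed in half-log steps down from roughly clinical Cmax, or from 10 microM where Cmax was unknown, alone and with AhR antagonists. Read-out: percent test/control growth of tumor spheroids containing HUVEC and MSC stromal cells.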

[1] = curve of first compound, second compound 0.1 µM
[2] = curve of first compound, second compound 0.316 µM
[3] = curve of first compound, second compound 1 µM
[4] = curve of first compound, second compound 3.16 µM
[5] = curve of first compound, second compound 10 µM
[6] = second compound 0.1 µM, first compound 0.00949 µM
[7] = second compound 0.1 µM, first compound 0.03 µM
[8] = second compound 0.1 µM, first compound 0.0949 µM
[9] = second compound 0.1 µM, first compound 0.3 µM
[10] = second compound 0.1 µM, first compound 0.949 µM
[11] = second compound 0.1 µM, first compound 3 µM
[12] = second compound 0.316 µM, first compound 0.00949 µM
[13] = second compound 0.316 µM, first compound 0.03 µM
[14] = second compound 0.316 µM, first compound 0.0949 µM
[15] = second compound 0.316 µM, first compound 0.3 µM
[16] = second compound 0.316 µM, first compound 0.949 µM
[17] = second compound 0.316 µM, first compound 3 µM
[18] = second compound 1 µM, first compound 0.00949 µM
[19] = second compound 1 µM, first compound 0.03 µM
[20] = second compound 1 µM, first compound 0.0949 µM
[21] = second compound 1 µM, first compound 0.3 µM
[22] = second compound 1 µM, first compound 0.949 µM
[23] = second compound 1 µM, first compound 3 µM
[24] = second compound 3.16 µM, first compound 0.00949 µM
[25] = second compound 3.16 µM, first compound 0.03 µM
[26] = second compound 3.16 µM, first compound 0.0949 µM
[27] = second compound 3.16 µM, first compound 0.3 µM
[28] = second compound 3.16 µM, first compound 0.949 µM
[29] = second compound 3.16 µM, first compound 3 µM
[30] = second compound 10 µM, first compound 0.00949 µM
[31] = second compound 10 µM, first compound 0.03 µM
[32] = second compound 10 µM, first compound 0.0949 µM
[33] = second compound 10 µM, first compound 0.3 µM
[34] = second compound 10 µM, first compound 0.949 µM
[35] = second compound 10 µM, first compound 3 µM
[36] = second compound 0.1 µM, first compound 0.0316 µM
[37] = second compound 0.1 µM, first compound 0.1 µM
[38] = second compound 0.316 µM, first compound 0.0316 µM
[39] = second compound 0.316 µM, first compound 0.1 µM
[40] = second compound 1 µM, first compound 0.0316 µM
[41] = second compound 1 µM, first compound 0.1 µM
[42] = second compound 3.16 µM, first compound 0.0316 µM
[43] = second compound 3.16 µM, first compound 0.1 µM
[44] = second compound 10 µM, first compound 0.0316 µM
[45] = second compound 10 µM, first compound 0.1 µM
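Also: spheroids exposed to compounds for seven days.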

SMILES: O=C(C=Cn1cnc(-c2cc(C(F)(F)F)cc(C(F)(F)F)c2)n1)NNc1cnccn1 + Cc1ccccc1N=Nc1ccc(NC(=O)c2ccnn2C)c(C)c1
IC50 [1]: 0.0729 µM
IC50 [2]: 0.071 µM
IC50 [3]: 0.0681 µM
IC50 [4]: 0.0648 µM
IC50 [5]: 0.0404 µM
viability, T/C [6]: 111%
viability, T/C [7]: 113%
viability, T/C [8]: 31.6%
viability, T/C [9]: 4.42%
viability, T/C [10]: 2.04%
viability, T/C [11]: 0.74%
viability, T/C [12]: 114%
viability, T/C [13]: 121%
viability, T/C [14]: 27.2%
viability, T/C [15]: 4.07%
viability, T/C [16]: 1.17%
viability, T/C [17]: 0.77%
viability, T/C [18]: 118%
viability, T/C [19]: 115%
viability, T/C [20]: 23.7%
viability, T/C [21]: 4.28%
viability, T/C [22]: 1.23%
viability, T/C [23]: 1.12%
viability, T/C [24]: 99.1%
viability, T/C [25]: 89.9%
viability, T/C [26]: 30.1%
viability, T/C [27]: 4.05%
viability, T/C [28]: 1.22%
viability, T/C [29]: 0.73%
viability, T/C [30]: 54.6%
viability, T/C [31]: 64.4%
viability, T/C [32]: 22.7%
viability, T/C [33]: 3.99%
viability, T/C [34]: 1.13%
viability, T/C [35]: 0.63%

SMILES: O=C(C=Cn1cnc(-c2cc(C(F)(F)F)cc(C(F)(F)F)c2)n1)NNc1cnccn1 + Cc1cncc(-c2nc(NCCc3c[nH]c4ccccc34)c3ncn(C(C)C)c3n2)c1
IC50 [1]: 0.0606 µM
IC50 [2]: 0.0692 µM
IC50 [3]: 0.0658 µM
IC50 [4]: 0.0425 µM
IC50 [5]: < 0.00949 µM
viability, T/C [6]: 93.3%
viability, T/C [7]: 99.9%
viability, T/C [8]: 20.3%
viability, T/C [9]: 4.2%
viability, T/C [10]: 2.2%
viability, T/C [11]: 1.61%
viability, T/C [12]: 97.4%
viability, T/C [13]: 93%
viability, T/C [14]: 33.8%
viability, T/C [15]: 5.36%
viability, T/C [16]: 2.35%
viability, T/C [17]: 1.45%
viability, T/C [18]: 98.2%
viability, T/C [19]: 89.4%
viability, T/C [20]: 31.6%
viability, T/C [21]: 4.92%
viability, T/C [22]: 2.78%
viability, T/C [23]: 1.53%
viability, T/C [24]: 64.6%
viability, T/C [25]: 66.2%
viability, T/C [26]: 14.8%
viability, T/C [27]: 5.25%
viability, T/C [28]: 2.77%
viability, T/C [29]: 1.58%
viability, T/C [30]: 19.2%
viability, T/C [31]: 16.8%
viability, T/C [32]: 8.05%
viability, T/C [33]: 4.48%
viability, T/C [34]: 3.45%
viability, T/C [35]: 2.01%

Continued, in another order:

IC50 [1]: 6.34 µM
IC50 [2]: 7.19 µM
IC50 [3]: 7.58 µM
IC50 [4]: 7.84 µM
IC50 [5]: 8.44 µM
SMILES: CC1(C)CCC(CN2CCN(c3ccc(C(=O)NS(=O)(=O)c4ccc(NCC5CCOCC5)c([N+](=O)[O-])c4)c(Oc4cnc5[nH]ccc5c4)c3)CC2)=C(c2ccc(Cl)cc2)C1 + CC(CO)NC(=O)c1cc(-c2ccc(Cl)cc2)nn(-c2cnn(C)c2)c1=O
viability, T/C [36]: 111%
viability, T/C [37]: 105%
viability, T/C (second compound 0.1 µM, first compound 0.316 µM): 102%
viability, T/C (second compound 0.1 µM, first compound 1 µM): 91.7%
viability, T/C (second compound 0.1 µM, first compound 3.16 µM): 70.7%
viability, T/C (second compound 0.1 µM, first compound 10 µM): 36.4%
viability, T/C [38]: 96.3%
viability, T/C [39]: 111%
viability, T/C (second compound 0.316 µM, first compound 0.316 µM): 100%
viability, T/C (second compound 0.316 µM, first compound 1 µM): 96.5%
viability, T/C (second compound 0.316 µM, first compound 3.16 µM): 70.6%
viability, T/C (second compound 0.316 µM, first compound 10 µM): 41.7%
viability, T/C [40]: 96.7%
viability, T/C [41]: 108%
viability, T/C (second compound 1 µM, first compound 0.316 µM): 112%
viability, T/C (second compound 1 µM, first compound 1 µM): 99.7%
viability, T/C (second compound 1 µM, first compound 3.16 µM): 78.6%
viability, T/C (second compound 1 µM, first compound 10 µM): 41%
viability, T/C [42]: 102%
viability, T/C [43]: 118%
viability, T/C (second compound 3.16 µM, first compound 0.316 µM): 103%
viability, T/C (second compound 3.16 µM, first compound 1 µM): 100%
viability, T/C (second compound 3.16 µM, first compound 3.16 µM): 81.5%
viability, T/C (second compound 3.16 µM, first compound 10 µM): 41.6%
viability, T/C [44]: 106%
viability, T/C [45]: 99.4%
viability, T/C (second compound 10 µM, first compound 0.316 µM): 103%
viability, T/C (second compound 10 µM, first compound 1 µM): 103%
viability, T/C (second compound 10 µM, first compound 3.16 µM): 90.8%
viability, T/C (second compound 10 µM, first compound 10 µM): 42.6%

IC50 (curve of compound): > 0.1 µM
SMILES: Cn1ncnc1C1c2n[nH]c(=O)c3cc(F)cc(c23)NC1c1ccc(F)cc1 (configuration not stated)
viability, T/C (compound 0.000316 µM): 96.9% and 103% and 101%
viability, T/C (compound 0.001 µM): 88.9% and 93.1% and 107%
viability, T/C (compound 0.00316 µM): 90.6% and 91.2% and 108%
viability, T/C (compound 0.01 µM): 88.6% and 93.7% and 89%
viability, T/C (compound 0.0316 µM): 79.9% and 75.4% and 87.3%
viability, T/C (compound 0.1 µM): 58% and 57% and 53.9%

IC50 [1]: 0.00546 µM
IC50 [2]: 0.00572 µM
IC50 [3]: 0.00447 µM
IC50 [4]: 0.00215 µM
IC50 [5]: < 0.000316 µM
SMILES: CC[C@@]1(O)C(=O)OCc2c1cc1n(c2=O)Cc2cc3c(CN(C)C)c(O)ccc3nc2-1 + Cc1cncc(-c2nc(NCCc3c[nH]c4ccccc34)c3ncn(C(C)C)c3n2)c1
viability, T/C (second compound 0.1 µM, first compound 0.000316 µM): 87.8%
viability, T/C (second compound 0.1 µM, first compound 0.001 µM): 96.1%
viability, T/C (second compound 0.1 µM, first compound 0.00316 µM): 67.6%
viability, T/C (second compound 0.1 µM, first compound 0.01 µM): 29.2%
viability, T/C [36]: 9.48%
viability, T/C [37]: 6.96%
viability, T/C (second compound 0.316 µM, first compound 0.000316 µM): 102%
viability, T/C (second compound 0.316 µM, first compound 0.001 µM): 88.1%
viability, T/C (second compound 0.316 µM, first compound 0.00316 µM): 71.9%
viability, T/C (second compound 0.316 µM, first compound 0.01 µM): 30.6%
viability, T/C [38]: 9.89%
viability, T/C [39]: 4.62%
viability, T/C (second compound 1 µM, first compound 0.000316 µM): 90.4%
viability, T/C (second compound 1 µM, first compound 0.001 µM): 82.2%
viability, T/C (second compound 1 µM, first compound 0.00316 µM): 62%
viability, T/C (second compound 1 µM, first compound 0.01 µM): 23.6%
viability, T/C [40]: 6.8%
viability, T/C [41]: 6.23%
viability, T/C (second compound 3.16 µM, first compound 0.000316 µM): 62.9%
viability, T/C (second compound 3.16 µM, first compound 0.001 µM): 60.1%
viability, T/C (second compound 3.16 µM, first compound 0.00316 µM): 44.5%
viability, T/C (second compound 3.16 µM, first compound 0.01 µM): 27.3%
viability, T/C [42]: 12.9%
viability, T/C [43]: 7.38%
viability, T/C (second compound 10 µM, first compound 0.000316 µM): 21.8%
viability, T/C (second compound 10 µM, first compound 0.001 µM): 21.9%
viability, T/C (second compound 10 µM, first compound 0.00316 µM): 20.9%
viability, T/C (second compound 10 µM, first compound 0.01 µM): 13.7%
viability, T/C [44]: 11.5%
viability, T/C [45]: 4.72%
